Experimental data published in PMC12613848, “First in human phase 1 study of DT2216, a selective BCL-xL degrader, in patients with relapsed/refractory solid malignancies” (Journal of Hematology & Oncology, 2025).
“Also recorded” adds a separate entry of the source. Like-named read-outs stand apart in the source and are kept apart here.

Test: Plasma pharmacokinetics of DT2216 in patients, phase 1 dose escalation
Type: in vivo, human
Settings: for ArAUC0−24 (accumulation ratio) / Vd / clearance / half-life / AUC(0-t) / AUC(0-inf) / Cmax / Tmax: plasma; for Vd / clearance / half-life / AUC(0-t) / AUC(0-inf) / Cmax / Tmax: human; for AUC(0-inf): read-out: AUC0−∞; for Cmax: read-out: Cmax; for Tmax: median (min, max)
Description: Dose escalation consisted of the administration of DT2216 intravenously twice weekly at several different doses outlined in protocol attached. The starting dose was 0.04 mg/kg, established based on pre-clinical toxicity studies. Safety was evaluated using CTCAE version 5.0. The initial three dose levels enrolled one patient, following which for dose level 4 and 5, a 3 + 3 design was utilized following a 100% incremental dose increase for dose levels 2 to 5 until the first dose limiting toxicity (DLT) in cycle 1 was observed. Thereafter, a modified Fibonacci sequence was used to define dose escalation increments until the maximum tolerated dose (MTD) was reached as described in protocol. If no dose-limiting toxicity (DLT) was observed during the DLT monitoring period of first 28 days, the next patient was enrolled at the next higher dose level. Dose-limiting toxicities (DLTs) during the first treatment cycle were defined as any Grade 5 toxicity; Grade 4 neutropenia lasting > 7 days; febrile neutropenia; Grade 4 thrombocytopenia or Grade 3 thrombocytopenia with clinically significant hemorrhage or lasting ≥ 7 days; and Grade ≥ 3 non-hematologic toxicities, excluding nausea, vomiting, or diarrhea lasting ≤ 3 days or transient laboratory abnormalities resolving within 72 h. Hepatotoxicity meeting Hy’s law criteria was also considered a DLT. Transient Grade 3–4 electrolyte abnormalities resolving to ≤ Grade 2 within 72 h were not considered DLTs.
Patients were allowed a maximum of two intra-patient dose escalations. Patients received DT2216 by intravenous infusion on days 1 and 4 weekly for at least 4 weeks, with each cycle consisting of a 28-day cycle for a maximum duration of 1 year until disease progression, unacceptable toxicity, or other withdrawal criteria, as listed in the protocol. The extent of disease was evaluated using imaging studies and disease-appropriate tumor markers every 8 weeks from day 1 of the first cycle. RP2D was established based on MTD as well as other relevant data, including clinical signals of activity, PK, and PD data.
Premedication prior to each infusion was at the discretion of the investigator or according to institutional guidelines. Patient assessment and follow-up procedures can be found in the schedule of assessments in this study. The clinical response was evaluated using RECIST v1.1 per protocol. Blood samples were collected for PK analysis before and after post-infusion at defined intervals, along with platelet counts. Exploratory biomarkers include (but are not limited to) the assessment of BCL-XL and VHL levels in peripheral white blood cells (WBC).
Throughout the course of the dose escalation trial, only one dose-limiting toxicity was observed, with grade 4 thrombocytopenia at a dose level of 0.32 mg/kg. […] The pharmacokinetic parameters of DT2216 were determined in patients following doses on Cycle 1 Day 1 and Cycle 1 Day 22 (Tables 4 and 5). […] AUC0-∞ values ranged from 8650 to 72,300 ng · h/mL over the dose range of 0.04 mg/kg 0.4 mg/kg. […] The volume of distribution at steady state (Vss) was small (< 100 mL/kg) and consistent across the dose groups. Following repeated dosing, accumulation of DT2216 in plasma was not observed with twice weekly dosing, with accumulation ratio values ranging from 0.74 to 1.07 on Cycle 1 Day 22 ([…]) across the dose groups.

[1] = iv, 0.04 mg/kg, Cycle 1 Day 1, 0.04 mg/kg IV, mean (CV%), N = 1
[2] = iv, 0.04 mg/kg, Cycle 1 Day 22, 0.04 mg/kg IV BIW, mean (CV%), N = 1
[3] = iv, 0.08 mg/kg, Cycle 1 Day 1, 0.08 mg/kg IV, mean (CV%), N = 1
[4] = iv, 0.08 mg/kg, Cycle 1 Day 22, 0.08 mg/kg IV BIW, mean (CV%), N = 1
[5] = iv, 0.12 mg/kg, Cycle 1 Day 1, 0.12 mg/kg IV, mean (CV%), N = 1

Cc1ncsc1-c1ccc([C@H](C)NC(=O)[C@@H]2C[C@@H](O)CN2C(=O)[C@@H](NC(=O)CCCCCC(=O)N2CCN(CC[C@H](CSc3ccccc3)Nc3ccc(S(=O)(=O)NC(=O)c4ccc(N5CCN(CC6=C(c7ccc(Cl)cc7)CCC(C)(C)C6)CC5)cc4)cc3S(=O)(=O)C(F)(F)F)CC2)C(C)(C)C)cc1 [DT2216]
dose proportionality of plasma exposure (AUC) (0.04 to 0.4 mg/kg IV BIW): dose proportional with no dose accumulation; also recorded: dose proportional increase in DT2216 exposure
maximum concentration (0.4 BIW dose): 8590 ng/mL
ArAUC0−24 (accumulation ratio) (Cycle 1 Day 22, 0.04 mg/kg IV BIW, mean (CV%), N = 1): 0.90 (N = 1)
ArAUC0−24 (accumulation ratio) (Cycle 1 Day 22, 0.08 mg/kg IV BIW, mean (CV%), N = 1): 0.74 (N = 1)
ArAUC0−24 (accumulation ratio) (Cycle 1 Day 22, 0.12 mg/kg IV BIW, mean (CV%), N = 1): 1.07 (N = 1)
ArAUC0−24 (accumulation ratio) (Cycle 1 Day 22, 0.24 mg/kg IV BIW, mean (CV%), N = 6): 1.08 (11.6) (N = 6)
ArAUC0−24 (accumulation ratio) (Cycle 1 Day 22, 0.32 mg/kg IV BIW, mean (CV%), N = 5): 1.02 (6.7) (N = 5)
ArAUC0−24 (accumulation ratio) (Cycle 1 Day 22, 0.4 mg/kg IV BIW, mean (CV%), N = 4): 1.01 (8.7) (N = 4)
steady state of plasma concentration (based on pre-dose and 2-hour post infusion plasma concentrations): reached by at least Cycle 1, Day 15
Vd (intravenous, consistent across the dose groups, read-out: volume of distribution at steady state (Vss)): < 0.1 L/kg
clearance (intravenous, over the dose range tested, read-out: clearance values): 0.0683 to 0.132 mL/min/kg
half-life (intravenous, over the dose range tested, independent of dose, read-out: mean half-life): 425 to 768 min
AUC(0-t) (iv, 0.04 mg/kg, Cycle 1 Day 1, 0.04 mg/kg IV, mean (CV%), N = 1, read-out: AUC0−24): 5920 ng·h/mL
AUC(0-inf) [1]: 8650 ng·h/mL
AUC(0-t) (iv, 0.04 mg/kg, Cycle 1 Day 1, 0.04 mg/kg IV, mean (CV%), N = 1, read-out: AUClast): 8470 ng·h/mL
clearance (iv, 0.04 mg/kg, Cycle 1 Day 1, 0.04 mg/kg IV, mean (CV%), N = 1, read-out: CL (converted)): 0.077 mL/min/kg
Cmax [1]: 738 ng/mL
half-life (iv, 0.04 mg/kg, Cycle 1 Day 1, 0.04 mg/kg IV, mean (CV%), N = 1, read-out: T½ (converted)): 768 min
Vd (iv, 0.04 mg/kg, Cycle 1 Day 1, 0.04 mg/kg IV, mean (CV%), N = 1, read-out: Vdss): 0.0776 L/kg
Tmax (iv, 0.04 mg/kg, Cycle 1 Day 1, 0.04 mg/kg IV, N = 1): 0.75 h
AUC(0-t) (iv, 0.04 mg/kg, Cycle 1 Day 22, 0.04 mg/kg IV BIW, mean (CV%), N = 1, read-out: AUC0−24): 5350 ng·h/mL
AUC(0-inf) [2]: 6230 ng·h/mL
AUC(0-t) (iv, 0.04 mg/kg, Cycle 1 Day 22, 0.04 mg/kg IV BIW, mean (CV%), N = 1, read-out: AUClast): 5390 ng·h/mL
clearance (iv, 0.04 mg/kg, Cycle 1 Day 22, 0.04 mg/kg IV BIW, mean (CV%), N = 1, read-out: CL (converted)): 0.107 mL/min/kg
Cmax [2]: 541 ng/mL
half-life (iv, 0.04 mg/kg, Cycle 1 Day 22, 0.04 mg/kg IV BIW, mean (CV%), N = 1, read-out: T½ (converted)): 491 min
Vd (iv, 0.04 mg/kg, Cycle 1 Day 22, 0.04 mg/kg IV BIW, mean (CV%), N = 1, read-out: Vdss): 0.081 L/kg
Tmax (iv, 0.04 mg/kg, Cycle 1 Day 22, 0.04 mg/kg IV BIW, N = 1): 2.5 h
AUC(0-t) (iv, 0.08 mg/kg, Cycle 1 Day 1, 0.08 mg/kg IV, mean (CV%), N = 1, read-out: AUC0−24): 13400 ng·h/mL
AUC(0-inf) [3]: 19500 ng·h/mL
AUC(0-t) (iv, 0.08 mg/kg, Cycle 1 Day 1, 0.08 mg/kg IV, mean (CV%), N = 1, read-out: AUClast): 19100 ng·h/mL
clearance (iv, 0.08 mg/kg, Cycle 1 Day 1, 0.08 mg/kg IV, mean (CV%), N = 1, read-out: CL (converted)): 0.0683 mL/min/kg
Cmax [3]: 1450 ng/mL
half-life (iv, 0.08 mg/kg, Cycle 1 Day 1, 0.08 mg/kg IV, mean (CV%), N = 1, read-out: T½ (converted)): 750 min
Vd (iv, 0.08 mg/kg, Cycle 1 Day 1, 0.08 mg/kg IV, mean (CV%), N = 1, read-out: Vdss): 0.07 L/kg
Tmax (iv, 0.08 mg/kg, Cycle 1 Day 1, 0.08 mg/kg IV, N = 1): 1.5 h
AUC(0-t) (iv, 0.08 mg/kg, Cycle 1 Day 22, 0.08 mg/kg IV BIW, mean (CV%), N = 1, read-out: AUC0−24): 9840 ng·h/mL
AUC(0-inf) [4]: 11700 ng·h/mL
AUC(0-t) (iv, 0.08 mg/kg, Cycle 1 Day 22, 0.08 mg/kg IV BIW, mean (CV%), N = 1, read-out: AUClast): 9910 ng·h/mL
clearance (iv, 0.08 mg/kg, Cycle 1 Day 22, 0.08 mg/kg IV BIW, mean (CV%), N = 1, read-out: CL (converted)): 0.114 mL/min/kg
Cmax [4]: 962 ng/mL
half-life (iv, 0.08 mg/kg, Cycle 1 Day 22, 0.08 mg/kg IV BIW, mean (CV%), N = 1, read-out: T½ (converted)): 518 min
Vd (iv, 0.08 mg/kg, Cycle 1 Day 22, 0.08 mg/kg IV BIW, mean (CV%), N = 1, read-out: Vdss): 0.091 L/kg
Tmax (iv, 0.08 mg/kg, Cycle 1 Day 22, 0.08 mg/kg IV BIW, N = 1): 2.5 h
AUC(0-t) (iv, 0.12 mg/kg, Cycle 1 Day 1, 0.12 mg/kg IV, mean (CV%), N = 1, read-out: AUC0−24): 12900 ng·h/mL
AUC(0-inf) [5]: 18000 ng·h/mL
AUC(0-t) (iv, 0.12 mg/kg, Cycle 1 Day 1, 0.12 mg/kg IV, mean (CV%), N = 1, read-out: AUClast): 17900 ng·h/mL
clearance (iv, 0.12 mg/kg, Cycle 1 Day 1, 0.12 mg/kg IV, mean (CV%), N = 1, read-out: CL (converted)): 0.111 mL/min/kg
Cmax [5]: 3710 ng/mL
half-life (iv, 0.12 mg/kg, Cycle 1 Day 1, 0.12 mg/kg IV, mean (CV%), N = 1, read-out: T½ (converted)): 535 min
Vd (iv, 0.12 mg/kg, Cycle 1 Day 1, 0.12 mg/kg IV, mean (CV%), N = 1, read-out: Vdss): 0.0557 L/kg
Tmax (iv, 0.12 mg/kg, Cycle 1 Day 1, 0.12 mg/kg IV, N = 1): 0.75 h
AUC(0-t) (iv, 0.12 mg/kg, Cycle 1 Day 22, 0.12 mg/kg IV BIW, mean (CV%), N = 1, read-out: AUC0−24): 13900 ng·h/mL
AUC(0-inf) (iv, 0.12 mg/kg, Cycle 1 Day 22, 0.12 mg/kg IV BIW, mean (CV%), N = 1): 14500 ng·h/mL
AUC(0-t) (iv, 0.12 mg/kg, Cycle 1 Day 22, 0.12 mg/kg IV BIW, mean (CV%), N = 1, read-out: AUClast): 13900 ng·h/mL
